From PMC4604124, “In Vitro Characterization of the Pharmacological Properties of the Anti-Cancer Chelator, Bp4eT, and Its Phase I Metabolites” (PLoS ONE, 2015)
“And” between values parts separate entries of the source, which are not always exact repeats. Equal entries are not always repeated. Where two headings read alike, the source gives them in different places.

How the values were obtained:
[1] = tested on: HL-60 human promyelocytic leukemia cells; assay: MTT cytotoxicity assay, HL-60 cells; type: cell-based; conditions: for IC50: MTT
Summary of the method: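 Cytotoxicity toward HL-60 leukemia cells was measured by MTT after a 72 h/37°C incubation with compounds, following 24 h pre-culture at 10,000 cells/well in 96-well plates. All media contained 0.1% DMSO. Optical density at 570 nm, corrected at 690 nm, gave viability relative to untreated controls (100%). IC50 values came from CalcuSyn 2.0, and data are mean ± SD.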

[2] = tested on: HCT116 human colorectal carcinoma cells; assay: MTT cytotoxicity assay, HCT116 cells; type: cell-based; conditions: for IC50: MTT
Summary of the method: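 Cells were seeded 24 h at 37°C (MCF-7 5,000, HCT116 and A549 2,000, H9c2 10,000 cells/well; H9c2 then given serum- and pyruvate-free DMEM for 24 h) and exposed to compounds for 72 h in medium with 0.1% DMSO. MTT absorbance was read at 570 nm minus 690 nm; IC50 came from viability relative to untreated controls.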

MCF-7 cells = assay: Cell cycle analysis by flow cytometry (propidium iodide); type: cell-based, human; conditions: 0.1 μM, 72 h
Experimental: To examine the effect of the agents on the cell cycle, MCF-7 cells were seeded in 60 mm Petri dishes at a density of 240,000 cells/dish and incubated with Bp4eT or its metabolites for 72 h/37°C. The cells were then harvested, fixed by ethanol and stained by propidium iodide (Molecular Probes, Eugene, OR, USA) for 30 min/37°C, as described previously. Cells were analyzed using Accuri C6 flow cytometer (Becton Dickinson and Company, San Jose, CA USA). Propidium iodide was excited at λex = 488 nm and fluorescence analyzed at λem = 585 nm (FL-2) with a total of 10,000 events collected per analysis.
SigmaStat for Windows 3.5 (Systat Software, San Jose, CA, USA) statistical software package was utilized to analyze results. The data are expressed as the mean ± SD of a given number of experiments. Statistical significance was determined using a one-way ANOVA with a Bonferroni post-hoc test or Student’s t-test. The results were considered to be statistically significant when p < 0.05. The IC50 values were calculated using CalcuSyn 2.0 software (Biosoft, Cambridge, UK). Cell cycle analysis was evaluated using MultiCycle AV Software (Phoenix Flow Systems, San Diego, CA, USA).

caspase 8 = assay: Caspase activity, luminescent kit, caspase 8; type: cell-based, human; conditions: for Caspase 8 activity, % of the control: 100 nM, MCF-7, corrected for viability; for kaspáza 8, průměry (means of raw signal): mean of 4 experiments; for kaspáza 8, raw signal / kaspáza 8, signal / viabilita: individual experiments by date

## CCNC(=S)NN=C(c1ccccc1)c1ccccn1 [Bp4eT, 2-benzoylpyridine 4-ethyl-3-thiosemicarbazone]
[1]; 3T3/HL-60
  Therapeutic index, IC50 non-cancerous cells / IC50 neoplastic cells: 436.3
[1]; H9c2/HL-60
  Therapeutic index, IC50 non-cancerous cells / IC50 neoplastic cells: 174.7
[1]; HL-60, 10 000 b/j, 0.1 nM, průměr (mean)
  MTT, relative to control (0 = 100): 98.01
[1]; HL-60, 10 000 b/j, 0.1 nM, single experiment (date)
  MTT, relative to control (0 = 100): 96.1425 and 103.96 and 95.2755 and 95.4167 and 99.2528
[1]; HL-60, 10 000 b/j, 0.3 nM, průměr (mean)
  MTT, relative to control (0 = 100): 96.66
[1]; HL-60, 10 000 b/j, 0.3 nM, single experiment (date)
  MTT, relative to control (0 = 100): 99.4278 and 92.0645 and 96.8892 and 98.2749
[1]; HL-60, 10 000 b/j, 1 nM, průměr (mean)
  MTT, relative to control (0 = 100): 97.15
[1]; HL-60, 10 000 b/j, 1 nM, single experiment (date)
  MTT, relative to control (0 = 100): 95.2755 and 96.4389 and 98.8804 and 97.9877
[1]; HL-60, 10 000 b/j, 3 nM, průměr (mean)
  MTT, relative to control (0 = 100): 62.98
[1]; HL-60, 10 000 b/j, 3 nM, single experiment (date)
  MTT, relative to control (0 = 100): 50.186 and 52.1752 and 67.6874 and 81.8744
[1]; HL-60, 10 000 b/j, 10 nM, průměr (mean)
  MTT, relative to control (0 = 100): 3.98
[1]; HL-60, 10 000 b/j, 30 nM, průměr (mean)
  MTT, relative to control (0 = 100): 1.50
[1]; HL-60, 10 000 b/j, 100 nM, průměr (mean)
  MTT, relative to control (0 = 100): 1.69
[1]; HL-60, 10 000 b/j, single experiment (date), read-out: IC50 měřené
  IC50: 2.84 nM and 3.65 nM and 4.08 nM
[1]; Homo sapiens, HL-60, 72 h, HL-60, 72 h/37°C, mean ± SD, n ≥ 4, read-out: IC50
  IC50: 3 ± 1 nM
[1]; Homo sapiens, HL-60, HL-60, 10 000 b/j, průměr (mean), read-out: IC50 měřené
  IC50: 3.48 nM
[1]; Homo sapiens, HL-60, HL-60, 10 000 b/j, single experiment (date), read-out: IC50 měřené
  IC50: 3.35 nM
[2]; 3T3/HCT116
  Therapeutic index, IC50 non-cancerous cells / IC50 neoplastic cells: 163.6
[2]; H9c2/HCT116
  Therapeutic index, IC50 non-cancerous cells / IC50 neoplastic cells: 65.5
[2]; HCT116, 2 000 b/j, 0.1 nM, průměr (mean)
  MTT, relative to control (0 = 100): 92.91
[2]; HCT116, 2 000 b/j, 0.1 nM, single experiment (date)
  MTT, relative to control (0 = 100): 94.5188 and 92.721 and 92.454 and 82.0932 and 102.751
[2]; HCT116, 2 000 b/j, 0.3 nM, průměr (mean)
  MTT, relative to control (0 = 100): 88.66
[2]; HCT116, 2 000 b/j, 0.3 nM, single experiment (date)
  MTT, relative to control (0 = 100): 92.7269 and 86.3547 and 90.8174 and 78.0265 and 95.3944
[2]; HCT116, 2 000 b/j, 1 nM, průměr (mean)
  MTT, relative to control (0 = 100): 85.74
[2]; HCT116, 2 000 b/j, 1 nM, single experiment (date)
  MTT, relative to control (0 = 100): 90.3279 and 80.727 and 89.5958 and 78.1202 and 89.9198
[2]; HCT116, 2 000 b/j, 3 nM, průměr (mean)
  MTT, relative to control (0 = 100): 82.64
[2]; HCT116, 2 000 b/j, 3 nM, single experiment (date)
  MTT, relative to control (0 = 100): 85.5357 and 81.1307 and 88.4648 and 76.4907 and 81.5651
[2]; HCT116, 2 000 b/j, 10 nM, průměr (mean)
  MTT, relative to control (0 = 100): 43.25
[2]; HCT116, 2 000 b/j, 10 nM, single experiment (date)
  MTT, relative to control (0 = 100): 46.7731 and 45.9842 and 47.2591 and 32.9751
[2]; HCT116, 2 000 b/j, 30 nM, průměr (mean)
  MTT, relative to control (0 = 100): 5.63
[2]; HCT116, 2 000 b/j, 100 nM, průměr (mean)
  MTT, relative to control (0 = 100): 2.50
[2]; HCT116, 2 000 b/j, single experiment (date)
  IC50: 7.8 nM and 8.77 nM and 5.93 nM
[2]; Homo sapiens, HCT-116, 72 h, HCT116, 72 h/37°C, mean ± SD, n ≥ 4
  IC50: 8 ± 1 nM
[2]; Homo sapiens, HCT-116, HCT116, 2 000 b/j, průměr (mean)
  IC50: 7.6 nM
[2]; Homo sapiens, HCT-116, HCT116, 2 000 b/j, single experiment (date)
  IC50: 7.89 nM
MCF-7 cells
  G1 phase of the cell cycle: not significantly (p > 0.05) different from the control
MCF-7 cells; control 15%
  Percentage of cells in the S phase: 35%
MCF-7 cells; control 33%
  Percentage of cells in the G2/M phase: 12%
Caspase 8; 24 h
  Caspase 8 activity, % of the control: 125%
Caspase 8; 72 h
  Caspase 8 activity, % of the control: 189%
Caspase 8; 3 hodiny (3 h), % of control
  kaspáza 8, % kontroly: 95.86%
Caspase 8; 3 hodiny (3 h)
  kaspáza 8, průměry (means of raw signal): 1343.75
Caspase 8; 3 hodiny
  kaspáza 8, raw signal: 2059 and 1157 and 1253.5 and 905.5
Caspase 8; 3 hodiny, mean
  kaspáza 8, raw signal, průměry: 1343.75
Caspase 8; 3 hodiny, mean, normalised to viability
  kaspáza 8, % kontroly: 100.78 % kontroly
Caspase 8; 3 hodiny, normalised to viability
  kaspáza 8, signal / viabilita: 21.3728 and 12.0099 and 13.0116 and 9.399
Caspase 8; 3 hodiny, normalised to viability, mean
  kaspáza 8, signal / viabilita, průměry: 13.9484
Caspase 8; 24 hodin (24 h), % of control
  kaspáza 8, % kontroly: 66.28%
Caspase 8; 24 hodin (24 h)
  kaspáza 8, průměry (means of raw signal): 1049.5
Caspase 8; 24 hodin
  kaspáza 8, raw signal: 1182.5 and 845.5 and 1242.5 and 927.5
Caspase 8; 24 hodin, mean
  kaspáza 8, raw signal, průměry: 1049.5
Caspase 8; 24 hodin, mean, normalised to viability
  kaspáza 8, % kontroly: 125.02 % kontroly
Caspase 8; 24 hodin, normalised to viability
  kaspáza 8, signal / viabilita: 22.3747 and 15.9981 and 23.51 and 17.5497
Caspase 8; 24 hodin, normalised to viability, mean
  kaspáza 8, signal / viabilita, průměry: 19.8581
Caspase 8; 72 hodin (72 h), % of control
  kaspáza 8, % kontroly: 50.72%
Caspase 8; 72 hodin (72 h)
  kaspáza 8, průměry (means of raw signal): 3576.88
Caspase 8; 72 hodin
  kaspáza 8, raw signal: 5283 and 3499.5 and 2666 and 2859
Caspase 8; 72 hodin, mean
  kaspáza 8, raw signal, průměry: 3576.88
Caspase 8; 72 hodin, mean, normalised to viability
  kaspáza 8, % kontroly: 188.91 % kontroly
Caspase 8; 72 hodin, normalised to viability
  kaspáza 8, signal / viabilita: 195.017 and 129.181 and 98.4127 and 105.537
Caspase 8; 72 hodin, normalised to viability, mean
  kaspáza 8, signal / viabilita, průměry: 132.037
